Usually IC50 stands for the point on the concentration scale where inhibition reaches its midpoint. In general, Ki refers to the dissociation constant of the complex between target and ligand, obtained from inhibition or displacement.

Here are results for 4 compounds from patent US8927500B2, “Peptidomimetic macrocycles” (Aileron Therapeutics, Inc., priority 2012, dated 2015).

SMILES strings stand for the structures. Where two headings read alike, the source gives them in different places. Where a SMILES comes first, the peptide text is derived from it. Bridges are numbered along the chain shown (N, C = ends). [ ]: non-standard residue; d: D form. Phe(3,4-F2) = N[C@@H](Cc1ccc(F)c(F)c1)C(=O)O; R8 = C=CCCCCCC[C@@](C)(N)C(=O)O; Cba = N[C@@H](CC1CCC1)C(=O)O; S5 = C=CCCC[C@](C)(N)C(=O)O; Nle = CCCC[C@H](N)C(=O)O A value given as a limit tells only on which side of the number the result lay.

Test [1] concerns the target MDM2 (Homo sapiens, UniProt Q00987). Briefly: Competitive fluorescence polarization assay for MDM2. Format: binding. To be noted: competitive FP assay, MDM2.
Test [2] concerns the target T1, MDMX (Homo sapiens, UniProt O15151).
T1 sequence (O15151 1-125): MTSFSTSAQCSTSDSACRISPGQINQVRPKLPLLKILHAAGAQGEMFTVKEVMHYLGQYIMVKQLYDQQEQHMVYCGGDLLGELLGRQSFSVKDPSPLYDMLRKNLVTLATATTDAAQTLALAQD
Briefly: Competitive fluorescence polarization assay for MDMX. Format: binding. Conditions: competitive FP assay. (In general: In fluorescence polarisation assays a small probe gives low polarisation when free and higher when bound to something large.)

Test [3] has as its system Caspase 3. Briefly: Caspase 3 detection assay in SJSA1 cells. Format: cell-based. Conditions: 48 h, Caspase 3 activation over DMSO-treated cells; for caspase 0.3 uM: 0.3 uM peptide; for caspase 3 uM: 3 uM peptide; for caspase 10 uM: 10 uM peptide; for caspase 30 uM: 30 uM peptide.
Test [4] deals with SJSA-1 cells. Briefly: Cell lysis by peptidomimetic macrocycles (LDH release). The class given is cell-based. To be noted: 1 h at 37C. (In general: Release of lactate dehydrogenase indicates damage to the cell membrane.)

Sequence of MDM2 (Q00987 1-125): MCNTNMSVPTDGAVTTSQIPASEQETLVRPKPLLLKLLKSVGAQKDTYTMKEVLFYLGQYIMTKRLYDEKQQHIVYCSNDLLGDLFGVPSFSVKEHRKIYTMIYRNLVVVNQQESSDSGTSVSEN

The compound `CC(=O)N[C@@H](CC(C)C)C(=O)N[C@H](C(=O)N[C@@H](Cc1ccccc1)C(=O)N[C@]1(C)CCCCCCC=CCCC[C@@](C)(C(=O)N[C@@H](CO)C(=O)N[C@@H](C)C(=O)N[C@@H](C)C(N)=O)NC(=O)[C@H](CC(C)C)NC(=O)[C@H](C)NC(=O)[C@H](C)NC(=O)[C@H](Cc2c[nH]c3ccccc23)NC(=O)[C@H](Cc2c[nH]cn2)NC(=O)[C@H](C)NC1=O)[C@@H](C)O` [compound 197] (Ac-LTF[R8]AHWAAL[S5]SAA-NH2; staple 4-11) gave an IC50 in test [1] (IC50 (MDM2)) of under 10 nM. In test [1] (Ki (MDM2)), this compound showed a Ki of under 10 nM. In test [2] (IC50 (MDMX)), this compound came in with an IC50 of 100 to 1000 nM. This compound displayed a Ki in test [2] (Ki (MDMX)) of 10 to 100 nM. Also, in test [3], the “caspase 0.3 uM” value is recorded as 1, the “caspase 3 uM” value stood at 1, the “caspase 10 uM” value worked out at 10 and the “caspase 30 uM” value was determined as 20. In test [4], the “6.25 uM % Lysed cells (1 h LDH)” value is on record as 1%, the “25 uM % Lysed cells (1 h LDH)” value is −1% and the “50 uM % Lysed cells (1 h LDH)” value is on record as −2%.

`CC(=O)N[C@@H](CC(C)C)C(=O)N[C@H](C(=O)N[C@@H](Cc1ccccc1)C(=O)N[C@]1(C)CCCCCCC=CCCC[C@@](C)(C(=O)N[C@@H](C)C(=O)N[C@@H](Cc2c[nH]cn2)C(=O)N[C@@H](Cc2ccccc2)C(=O)N[C@@H](C)C(N)=O)NC(=O)[C@H](CC(C)C)NC(=O)[C@H](C)NC(=O)[C@H](C)NC(=O)[C@H](Cc2c[nH]c3ccccc23)NC(=O)[C@H](Cc2ccc(O)cc2)NC(=O)[C@H](C)NC1=O)[C@@H](C)O` [compound 204] (Ac-LTF[R8]AYWAAL[S5]AHFA-NH2; staple 4-11): the IC50 in test [1] (read-out: IC50 (MDM2)) fell in the range of 10 to 100 nM. Further, the Ki in test [1] (read-out: Ki (MDM2)) is under 10 nM. Besides, the IC50 in test [2] (read-out: IC50 (MDMX)) lay in the range of 100 to 1000 nM. For the same compound, the Ki in test [2] (read-out: Ki (MDMX)) lay within 10 to 100 nM. Moreover, in test [3], the “caspase 0.3 uM” value was determined as 1, the “caspase 3 uM” value was 4, the “caspase 10 uM” value is 10 and the “caspase 30 uM” value is recorded as 10. Further, in test [4], the “6.25 uM % Lysed cells (1 h LDH)” value is on record as 4%, the “25 uM % Lysed cells (1 h LDH)” value was determined as 2% and the “50 uM % Lysed cells (1 h LDH)” value stood at 0%.

Regarding `CCCC[C@H](NC(=O)[C@H](C)NC(=O)[C@H](C)NC(=O)[C@]1(C)CCCC=CCCCCCC[C@@](C)(NC(=O)[C@H](Cc2ccccc2)NC(=O)[C@@H](NC(=O)[C@H](CCC(=O)O)NC(C)=O)[C@@H](C)O)C(=O)N[C@@H](C)C(=O)N[C@@H](Cc2ccc(O)cc2)C(=O)N[C@@H](Cc2c[nH]c3ccccc23)C(=O)N[C@@H](C)C(=O)N[C@@H](CCC(N)=O)C(=O)N[C@@H](CC2CCC2)C(=O)N1)C(=O)N[C@@H](C)C(N)=O` [compound 237] (Ac-ETF[R8]AYWAQ[Cba][S5]AA[Nle]A-NH2; staple 4-11), the IC50 in test [1] (read-out: IC50 (MDM2)) lay in the range of 10 to 100 nM. For the same compound, the Ki in test [1] (read-out: Ki (MDM2)) was under 10 nM. The IC50 in test [2] (read-out: IC50 (MDMX)) lay in the range of 100 to 1000 nM. For the same compound, in test [2] (read-out: Ki (MDMX)), the Ki was 10 to 100 nM. Moreover, in test [3], the “caspase 0.3 uM” value came to 1, the “caspase 3 uM” value is 5, the “caspase 10 uM” value came to 9 and the “caspase 30 uM” value was 15. Besides, in test [4], the “6.25 uM % Lysed cells (1 h LDH)” value is recorded as 0%, the “25 uM % Lysed cells (1 h LDH)” value was found to be 7% and the “50 uM % Lysed cells (1 h LDH)” value was determined as 55%.

As to `CCCC[C@H](NC(=O)[C@H](C)NC(=O)[C@H](CO)NC(=O)[C@]1(C)CCCC=CCCCCCC[C@@](C)(NC(=O)[C@H](Cc2ccc(F)c(F)c2)NC(=O)[C@@H](NC(=O)[C@H](CC(C)C)NC(C)=O)[C@@H](C)O)C(=O)N[C@@H](CCC(=O)O)C(=O)N[C@@H](Cc2ccc(O)cc2)C(=O)N[C@@H](Cc2c[nH]c3ccccc23)C(=O)N[C@@H](C)C(=O)N[C@@H](CCC(N)=O)C(=O)N[C@@H](CC2CCC2)C(=O)N1)C(=O)N[C@@H](C)C(N)=O` [compound 243] (Ac-LT[Phe(3,4-F2)][R8]EYWAQ[Cba][S5]SA[Nle]A-NH2; staple 4-11), in test [1] (read-out: IC50 (MDM2)), the IC50 was 10 to 100 nM. In addition, the Ki in test [1] (read-out: Ki (MDM2)) is under 10 nM. In test [2] (read-out: IC50 (MDMX)), the IC50 lay in the range of 10 to 100 nM. In test [2] (read-out: Ki (MDMX)), the Ki is 10 to 100 nM. For the same compound, in test [3], the “caspase 0.3 uM” value came out at 1, the “caspase 3 uM” value was 2, the “caspase 10 uM” value is 5 and the “caspase 30 uM” value was determined as 23. In test [4], the “6.25 uM % Lysed cells (1 h LDH)” value turned out to be 4%, the “25 uM % Lysed cells (1 h LDH)” value is 39% and the “50 uM % Lysed cells (1 h LDH)” value amounted to 64%.
